# Test results from patent US11236056B2, “Small molecules and methods of reducing injuries caused by radiation or chemicals” (priority 2019, dated 2022).
# Like-named read-outs stand apart in the source and are kept apart here.
# Key:
# [1] = Solubility determination of UTS-14 compounds; assay type: physicochemical; conditions: thermodynamic from solid
# Description: If the compound was not dissolved, more solvent was added and the solution was watched again after one day. This procedure was continued until the compound was completely dissolved, after which the solubility was calculated.
# NIH Swiss female mice = test: Radioprotection, 24 hr pretreatment, female mice (Example 5); assay type: in vivo
# Description: Only 8.5 Gy results are summarized here.
# FIG. 7 is a graph of the effect of UTS-1401 on TBI induced mortality in NIH-Swiss mice administered at 150 mg/kg determined according to Example 5.
# NIH-Swiss female mice [2] = test: Radioprotection compared with amifostine, 45 min before or after TBI (Example 4); assay type: in vivo
# Description: NIH-Swiss female mice were divided into 8 groups (10 mice/group). (A) Forty-five min prior to 7.5 Gy TBI, mice were treated by i.p. injection with UTS-1401 (75 mg/kg), amifostine (75 mg/kg) or vehicle, respectively. Mice in control group were not irradiated. (B) Same procedure as in (A) except that mice were treated by testing agents forty-five min after 7.5 Gy TBI.
# FIG. 4 is a graph of the effects of UTS-1401 and amifostine on TBI induced in NIH-Swiss mice mortality administered 45 minutes before TBI determined according to Example 4.
# FIG. 5 is a graph of the effects of UTS-1401 and amifostine on TBI induced in NIH-Swiss mice mortality administered 45 minutes after TBI determined according to Example 4.
# H9C2 cardiomyocytes = test: Protection against doxorubicin-induced damage on cardiomyocytes in vitro (MTT assay); assay type: cell-based; conditions: 30 min pretreatment before DOX, assayed 3 days later
# Description: Briefly, myocardiocytes H9C2 were cultured in high glucose DMEM with 10% bovine calf serum and 10,000 cells per well of cardiomyocytes were treated by DOX with and without the 30 min pretreatment of UTS-1401. The survival rates were assayed by MTT assay 3 days later.
# FIG. 8 is a graph showing protection of UTS-1401 on H9C2 cardiomyocytes against DOX-induced determined according to Example 6.
# NIH Swiss male mice = test: Radioprotection, 24 hr pretreatment, male mice (Example 5); assay type: in vivo
# Description: NIH Swiss male mice were studied for the radioprotective effects of UTS-1401 at 50, 100, and 150 mg/kg respectively by i.p. injection at 24 hr before TBI at 6.5, 7.5, and 8.5 Gy. […] These observations indicate that UTS-1401 is effective as a radioprotector for male NIH Swiss mice against TBI of both 7.5 and 8.5 Gy.
# FIG. 6 is a graph of the effect of UTS-1401 on TBI induced mortality in NIH-Swiss mice administered at 100 mg/kg determined according to Example 5.
# NIH-Swiss female mice [3] = test: Radioprotection against TBI induced mortality, 30 min pretreatment (Example 2); assay type: in vivo; conditions: 80 mg/kg i.p. 30 min prior to 7.5 Gy TBI
# Description: NIH-Swiss female mice were divided into 5 groups (8 mice/group). Thirty min prior to 7.5 Gy TBI, mice were treated by i.p. injection with UTS-1401, -1402, and -1403 (80 mg/kg each) or vehicle, respectively. Mice in control group were not irradiated. Definition of “death” used in this study was when a mouse actually died or when a mouse lost 20% or more of its bodyweight.
# FIG. 2 is a graph of the radioprotection of UTS-1401, -1402, and -1403 determined according to Example 2.
# NIH-Swiss female mice [4] = test: Drug dose-dependent radioprotection against TBI induced mortality, 30 min pretreatment (Example 3); assay type: in vivo; conditions: 25 or 75 mg/kg i.p. 30 min prior to 7.5 Gy TBI
# Description: NIH-Swiss female mice were divided into 4 groups (8 mice/group). Thirty min prior to 7.5 Gy TBI, mice were treated by i.p. injection with UTS-1401 (0, 2, or 6 mg/mL or 0, 25, or 75 mg/kg) or vehicle, respectively. Mice in control group were not irradiated. Definition of “death” used in this study was when a mouse actually died or when a mouse lost 20% or more of its bodyweight.
# FIG. 3 is a graph of the dose-dependent effect of UTS-1401 on TBI induced mortality in NIH-Swiss mice determined according to Example 3.
# [5] = water, rm temp, read-out: solubility in water
# [6] = 50, 100, and 150 mg/kg 24 hr before 8.5 Gy TBI
# [7] = 75 mg/kg i.p. 45 min after 7.5 Gy TBI
# [8] = 75 mg/kg i.p. 45 min before 7.5 Gy TBI
structure (smiles),measurement,setting,value
CSCc1cc(C(=O)O)no1 [UTS-1401],solubility,"[1]; saline or isotonic, saline, 37° C., read-out: solubility in saline at 37° C.",12 mg/mL
same,solubility,[1]; [5],~9.5 mg/mL
same,dose dependence of radioprotective effects,NIH Swiss female mice; [6],essentially the same for all 3 doses
same,radioprotective effects / mortality,NIH Swiss female mice; [6],significant radioprotective effects and reduced the mortality
same,optimal dose,NIH Swiss female mice; 24 hr before 8.5 Gy TBI,around 50 mg/kg
same,survival rate of mice,NIH-Swiss female mice [2]; [7],significantly increased the survival rate
same,survival rate of mice,NIH-Swiss female mice [2]; [8],increased the survival rate
same,radioprotection as compared with amifostine,NIH-Swiss female mice [2]; 75 mg/kg i.p. 45 min before or after 7.5 Gy TBI,better radioprotection as compared with amifostine
same,protection of cardiomyocytes (survival rates by MTT),H9C2 cardiomyocytes,protected cardiomyocytes significantly
same,survival rates,"NIH Swiss male mice; 50, 100, 150 mg/kg i.p. 24 hr before 7.5 Gy TBI",greatly increased
same,dose dependence of survival rates,"NIH Swiss male mice; 50, 100, 150 mg/kg i.p. 24 hr before 7.5 and 8.5 Gy TBI",drug-dose dependent
same,survival rates,"NIH Swiss male mice; 50, 100, 150 mg/kg i.p. 24 hr before 8.5 Gy TBI",greatly increased
same,day from which average body wt of surviving pretreated mice started to recover,NIH Swiss male mice; i.p. 24 hr before TBI,~20 days
same,survival of irradiated mice,NIH-Swiss female mice [3],increased the survival
same,survival rate of mice,NIH-Swiss female mice [4],increased the survival rate of mice in a dose-dependent manner
C[S+]([O-])Cc1cc(C(=O)O)no1 (stereo not shown) [UTS-1402],solubility,[1]; [5],~16 mg/mL
same,survival of irradiated mice,NIH-Swiss female mice [3],increased the survival
CS(=O)(=O)Cc1cc(C(=O)O)no1 [UTS-1403],solubility,"[1]; Hank's Balanced Salt Solution (HBSS), saline or isotonic, read-out: solubility in Hank's Balanced Salt Solution (HBSS)",~15.8 mg/mL
same,solubility,[1]; [5],~9.1 mg/mL
same,survival of irradiated mice,NIH-Swiss female mice [3],increased the survival
"NCCCNCCSP(=O)(O)O [amifostine, Amifostine, reference compound]",survival rate of mice,NIH-Swiss female mice [2]; [7],did not increase the survival rate
same,survival rate of mice,NIH-Swiss female mice [2]; [8],increased the survival rate
